One assay deals with T1, TRPV1 receptor (Homo sapiens, UniProt Q8NER1).
T1 construct: Sensory neurons cultured in the presence of normal human epidermal keratinocytes; endogenous in cells; host or cells: sensory neurons in co-culture with normal human epidermal keratinocytes
Kind of assay: Intracytoplasmic calcium mobilization (Fluo-4) in sensory neurons stimulated by capsaicin in co-culture with keratinocytes. In kind it is cell-based. The following applies: capsaicin 10^-6 M, vs. control. The procedure:
Activation of the TRPV1 receptor on sensory neurons can be evaluated by analyzing the electrical activity of sensory neurons by monitoring variations of the cytoplasmic calcium concentration. Indeed, when cells are stimulated by capsaicin, a massive amount of extracellular calcium enters the neuronal cytoplasm in order to trigger electrical activity and to cause a massive release of neuropeptides in the extracellular space. The variation of the level of fluorescence is analyzed by the incorporation of a calcium-dependent fluorescent probe (Fluo-4) in the cells. Thus, during the increase in calcium in the cells, the level of fluorescence increases in the cell body of the neurons. The higher this level, the higher the stimulation of the neurons. Sensory neurons cultured in the presence of normal human epidermal keratinocytes were incubated in the presence of the peptide and oside extract of Schisandra sphenanthera at concentrations of 0.005%, 0.01%, 0.05% and 0.1% (DM) or the reference molecule, capsazepine, at a concentration of 10^−5 M (Sigma). After 60 minutes of pre-incubation, the fluorescent probe, Fluo-4 (Molecular probe), was added to the culture medium and the cells were incubated 30 minutes. […] The significance of the results was confirmed by Bartlett's test.

Another assay has as its system CGRP. Put plainly: CGRP release by sensory neurons stimulated by capsaicin in co-culture with keratinocytes. The assay is classed as cell-based. The following applies: 60 min pre-incubation, extract 0.005%-0.1% (DM) or capsazepine 10^-5 M, capsaicin 10^-7 M, 15 min. As to the method: Sensory neurons were cultured in the presence of normal human epidermal keratinocytes. After 3 days of co-culture, the neurons project extensions in the form of free endings in contact with the keratinocytes. The cells were then incubated in the presence of the peptide and oside extract of Schisandra Sphenanthera at concentrations of 0.005%, 0.01%, 0.05% and 0.1% (DM) or the reference molecule, capsazepine, at a concentration of 10^−5 M (Sigma). After 60 minutes of pre-incubation, the neurons (in co-culture) were stimulated by capsaicin at a concentration of 10^−7 M (Sigma). After 15 minutes of stimulation, the culture supernatants were collected in order to assay the released CGRP. The CGRP assay was carried out using the CGRP assay kit (SpiBio). The significance of the results was confirmed by one-way analysis of variance followed by Dunnett's test.

T1 sequence (Q8NER1 whole entry): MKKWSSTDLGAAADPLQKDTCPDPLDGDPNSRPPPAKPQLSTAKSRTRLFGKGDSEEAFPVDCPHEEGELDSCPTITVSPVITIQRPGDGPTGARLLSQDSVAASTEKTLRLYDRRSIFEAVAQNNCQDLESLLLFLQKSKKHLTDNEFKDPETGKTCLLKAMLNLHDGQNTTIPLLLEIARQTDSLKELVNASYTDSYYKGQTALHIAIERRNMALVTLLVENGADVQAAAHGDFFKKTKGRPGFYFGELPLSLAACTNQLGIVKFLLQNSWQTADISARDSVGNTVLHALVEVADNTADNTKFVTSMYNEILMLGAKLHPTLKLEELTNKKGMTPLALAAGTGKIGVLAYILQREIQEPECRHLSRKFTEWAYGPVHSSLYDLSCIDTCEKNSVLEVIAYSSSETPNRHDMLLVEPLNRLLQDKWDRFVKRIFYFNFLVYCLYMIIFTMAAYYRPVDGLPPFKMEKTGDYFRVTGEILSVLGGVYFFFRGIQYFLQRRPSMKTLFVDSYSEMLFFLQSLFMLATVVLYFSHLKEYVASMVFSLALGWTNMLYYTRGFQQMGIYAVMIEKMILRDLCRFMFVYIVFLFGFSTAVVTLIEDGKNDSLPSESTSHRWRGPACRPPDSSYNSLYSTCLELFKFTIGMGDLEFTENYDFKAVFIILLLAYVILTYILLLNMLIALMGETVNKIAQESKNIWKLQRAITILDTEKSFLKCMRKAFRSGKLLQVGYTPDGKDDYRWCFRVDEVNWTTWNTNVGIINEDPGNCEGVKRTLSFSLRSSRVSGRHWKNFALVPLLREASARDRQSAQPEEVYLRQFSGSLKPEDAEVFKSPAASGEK

`COc1cc(CNC(=O)CCCC/C=C/C(C)C)ccc1O` [capsaicin]: the “level of fluorescence (quantity of intracytoplasmic calcium) after addition of the stimulus” value on TRPV1 receptor is “significant increase in the level of fluorescence”.

Take `Oc1cc2c(cc1O)CN(C(=S)NCCc1ccc(Cl)cc1)CCC2` [capsazepine]: in the assay on CGRP, the “release of CGRP induced by capsaicin” value was “inhibitory effect”.

Source of the values: US10143648B2, “Peptide and oside extract of schisandra fruit and improvement in the response of the cutaneous neurosensory system” (LABORATOIRES EXPANSCIENCE, priority 2014, dated 2018).
